Data on 21 compounds can be found in patent US8435978B2, “Substituted sulfonamide compounds” (Gruenenthal GmbH, priority 2006, dated 2013).

The target in one test is T1, B1R receptor of the rat (Rattus norvegicus, UniProt P97583).
T1 construct: host or cells: CHO K1 cells (Chinese hamster ovary), stably transfected
T1 sequence (P97583 1-337): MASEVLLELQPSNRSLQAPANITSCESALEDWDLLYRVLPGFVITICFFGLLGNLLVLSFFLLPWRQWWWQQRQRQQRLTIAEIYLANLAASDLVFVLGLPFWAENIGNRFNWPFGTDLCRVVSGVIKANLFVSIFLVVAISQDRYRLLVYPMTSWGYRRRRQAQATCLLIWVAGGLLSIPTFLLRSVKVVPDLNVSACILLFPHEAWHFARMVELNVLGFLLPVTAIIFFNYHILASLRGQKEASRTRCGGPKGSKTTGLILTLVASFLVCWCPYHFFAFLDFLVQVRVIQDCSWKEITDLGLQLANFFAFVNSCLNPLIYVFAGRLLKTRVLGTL
The test can be described thus: Functional study on the bradykinin receptor 1 (B1R), FLIPR Ca2+ assay, rB1R cells. The class given is cell-based. The following applies: agonist Des-Arg9-bradykinin 100 nM, % inhibition compared with the maximum achievable inhibition; for inhibition at 10 µM: read-out: B1R Antagonism, rat [10 μM] % Inhibition. In short, it runs like this: (§1)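 CHO K1 cells stably expressing human or rat B1R, Fluo-4-loaded; test compound 10 μM added first (activation % vs agonist), then after 10 min 0.5 nM Lys-Des-Arg9-bradykinin (human) or 100 nM Des-Arg9-bradykinin (rat). Ca2+ peak fluorescence by FLIPR; % inhibition relative to maximum achievable inhibition.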

The next test deals with T2, human B1R receptor (Homo sapiens, UniProt P46663).
T2 construct: host or cells: CHO K1 cells (Chinese hamster ovary), stably transfected
T2 sequence (P46663 1-353): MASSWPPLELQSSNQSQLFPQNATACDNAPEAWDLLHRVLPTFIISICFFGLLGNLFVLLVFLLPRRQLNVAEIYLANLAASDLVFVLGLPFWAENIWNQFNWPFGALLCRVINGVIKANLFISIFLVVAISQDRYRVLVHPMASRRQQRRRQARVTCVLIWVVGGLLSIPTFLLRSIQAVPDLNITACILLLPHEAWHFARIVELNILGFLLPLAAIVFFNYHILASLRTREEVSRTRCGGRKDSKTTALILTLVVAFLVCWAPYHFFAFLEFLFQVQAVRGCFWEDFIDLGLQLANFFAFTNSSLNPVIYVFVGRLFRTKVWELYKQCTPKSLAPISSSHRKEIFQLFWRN
The test can be described thus: Functional study on the bradykinin receptor 1 (B1R), FLIPR Ca2+ assay, hB1R cells. The class given is cell-based. The note with it: agonist Lys-Des-Arg9-bradykinin 0.5 nM, % inhibition compared with the maximum achievable inhibition; for inhibition at 10 µM: read-out: B1R Antagonism, human [10 μM] % Inhibition. In short, it runs like this:
as §1

Setting [1] is: test substance 10 μM, rB1R CHO K1 cells.
[2] abbreviates: test substance 10 μM, hB1R CHO K1 cells.

Structures are written as SMILES. Structures can show the parent of a compound that is named as a salt. Where two headings read alike, the source gives them in different places.

Broadly, the inhibition is the drop in the measured response relative to a control, in per cent. With `COc1cccc(N2CCN(C(=O)COCC3CCCCN3S(=O)(=O)c3c(C)cc(C)cc3C)CC2)c1` (stereo not drawn) [Example 77, 1-[4-(3-methoxy-phenyl)-piperazin-1-yl]-2-[1-(2,4,6-trimethyl-phenylsulfonyl)-piperidin-2-ylmethoxy]-ethanone], the inhibition at 10 µM amounted to 105% at B1R receptor of the rat (CHO-K1, test substance 10 μM) and 48% at human B1R receptor (CHO-K1, test substance 10 μM).
Take `CN(C(=O)COCC1Cc2ccccc2CN1S(=O)(=O)c1ccc(Cl)cc1Cl)C1CCN(Cc2ccccc2)C1` (stereo not drawn) [Example 78, N-(1-benzyl-pyrrolidin-3-yl)-2-[2-(2,4-dichloro-phenylsulfonyl)-1,2,3,4-tetrahydro-isoquinolin-3-ylmethoxy]-N-methyl-acetamide]: the inhibition at 10 µM at B1R receptor of the rat (CHO-K1, test substance 10 μM) is 35.2%; at human B1R receptor (CHO-K1, test substance 10 μM), 45.7%.
For `O=C(COCC1Cc2ccccc2CN1S(=O)(=O)c1ccc(Cl)cc1Cl)N1CCCN(Cc2ccccc2)CC1` (stereo not drawn) [Example 79, 1-(4-benzyl-[1,4]diazepan-1-yl)-2-[2-(2,4-dichloro-phenylsulfonyl)-1,2,3,4-tetra-hydro-isoquinolin-3-ylmethoxy]-ethanone], in that order: 54.5% and 45.5%.
For `Cc1cc(C)c(S(=O)(=O)N2CCCCC2COCC(=O)NCc2ccccc2N2CCN(C)CC2)c(C)c1` (stereo not drawn) [Example 80, N-[2-(4-methyl-piperazin-1-yl)-benzyl]-2-[1-(2,4,6-trimethyl-phenylsulfonyl)-piperidin-2-ylmethoxy]-acetamide], in that order: 22.5% and 45.3%.
For `O=C(COCC1Cc2ccccc2N1S(=O)(=O)c1ccc(Cl)c(Cl)c1)NCc1ccc(CN2CCCC2)cc1` (stereo not drawn) [Example 81, 2-[1-(3,4-dichloro-phenylsulfonyl)-2,3-dihydro-1H-indol-2-ylmethoxy]-N-(4-pyrrolidin-1-ylmethyl-benzyl)-acetamide], in that order: 34.1% and 44.9%.
With `O=C(COCC1Cc2ccccc2CN1S(=O)(=O)c1ccc(Cl)c(Cl)c1)N1CCCC1CN1CCCCC1` (stereo not drawn) [Example 82, 2-[2-(3,4-dichloro-phenylsulfonyl)-1,2,3,4-tetrahydro-isoquinolin-3-ylmethoxy]-1-(2-piperidin-1-ylmethyl-pyrrolidin-1-yl)-ethanone], the inhibition at 10 µM on B1R receptor of the rat (CHO-K1, test substance 10 μM) was 4.42%; at human B1R receptor (CHO-K1, test substance 10 μM), 44.9%.
For `Cc1cc(C)c(S(=O)(=O)N2Cc3ccccc3CC2COCC(=O)NCc2ccc(CN3CCCC3)cc2)c(C)c1` (stereo not drawn) [Example 83, N-(4-pyrrolidin-1-ylmethyl-benzyl)-2-[2-(2,4,6-trimethyl-phenylsulfonyl)-1,2,3,4-tetrahydro-isoquinolin-3-ylmethoxy]-acetamide], in that order: 30.8% and 43.9%.
As to `COc1ccc(N2CCN(C(=O)COCC3CCCCN3S(=O)(=O)c3ccc(Cl)c(Cl)c3)CC2)cc1` (stereo not drawn) [Example 84, 2-[1-(3,4-dichloro-phenylsulfonyl)-piperidin-2-ylmethoxy]-1-[4-(4-methoxy-phenyl)-piperazin-1-yl]-ethanone], the inhibition at 10 µM stood at 0% on B1R receptor of the rat (CHO-K1, test substance 10 μM) and 43.7% on human B1R receptor (CHO-K1, test substance 10 μM).
As for `CN(C)CCCN1CCN(C(=O)COCC2CCCCN2S(=O)(=O)c2ccc(Cl)c(Cl)c2)CC1` (stereo not drawn) [Example 85, 2-[1-(3,4-dichloro-phenylsulfonyl)-piperidin-2-ylmethoxy]-1-[4-(3-dimethylamino-propyl)-piperazin-1-yl]-ethanone], the inhibition at 10 µM was 40.8% at B1R receptor of the rat (CHO-K1, test substance 10 μM) and 43.7% on human B1R receptor (CHO-K1, test substance 10 μM).
For `O=C(COCC1CCCCN1S(=O)(=O)c1ccc(Cl)c(Cl)c1)N1CCN(c2ccccc2F)CC1` (stereo not drawn) [Example 86, 2-[1-(3,4-dichloro-phenylsulfonyl)-piperidin-2-ylmethoxy]-1-[4-(2-fluoro-phenyl)-piperazin-1-yl]-ethanone], in that order: 0% and 43.2%.
Consider `Cc1cc(C)c(S(=O)(=O)N2CCCCC2COCC(=O)Nc2ccc(-n3ccnc3C)cc2)c(C)c1` (stereo not drawn) [Example 87, N-[4-(2-methyl-imidazol-1-yl)-phenyl]-2-[1-(2,4,6-trimethyl-phenylsulfonyl)-piperidin-2-ylmethoxy]-acetamide], for which the inhibition at 10 µM at B1R receptor of the rat (CHO-K1, test substance 10 μM) worked out at 44.4%; on human B1R receptor (CHO-K1, test substance 10 μM), 42.7%.
For `CN(C)CCCN1CCN(C(=O)COCC2CCCN2S(=O)(=O)c2ccc(Cl)c(Cl)c2)CC1` (stereo not drawn) [Example 88, 2-[1-(3,4-dichloro-phenylsulfonyl)-pyrrolidin-2-ylmethoxy]-1-[4-(3-dimethylamino-propyl)-piperazin-1-yl]-ethanone] the same measures were 7.33% and 42.1%.
As to `O=C(COCC1CCCN1S(=O)(=O)c1ccc(Cl)c(Cl)c1)N1CCN(c2ccccc2)CC1` (stereo not drawn) [Example 89, 2-[1-(3,4-dichloro-phenylsulfonyl)-pyrrolidin-2-ylmethoxy]-1-(4-phenyl-piperazin-1-yl)-ethanone], the inhibition at 10 µM was 0% at B1R receptor of the rat (CHO-K1, test substance 10 μM) and 41.3% on human B1R receptor (CHO-K1, test substance 10 μM).
For `COc1ccc(S(=O)(=O)N2CCCCC2CCOCC(=O)N2CCC(CCN3CCCCC3)CC2)cc1` (stereo not drawn) [Example 90, 2-(2-(1-(4-methoxyphenylsulfonyl)piperidin-2-yl)ethoxy)-1-(4-(2-(piperidin-1-yl)-ethyl)piperidin-1-yl)ethanone], in that order: 99.5% and 50%.
For `COc1cc(C)c(S(=O)(=O)N2CCCCC2COCC(=O)N2CCN(Cc3cccc(C#N)c3)CC2)c(C)c1` (stereo not drawn) [Example 92, 3-((4-(2-((1-(4-methoxy-2,6-dimethylphenylsulfonyl)piperidin-2-yl)methoxy)acetyl)-piperazin-1-yl)methyl)benzonitrile hydrochloride], in that order: 101% and 103%.
For `COc1cc(C)c(S(=O)(=O)N2CCCC2COCC(=O)N2CCN(Cc3cccc(C#N)c3)CC2)c(C)c1` (stereo not drawn) [Example 93, 3-((4-(2-((1-(4-methoxy-2,6-dimethylphenylsulfonyl)pyrrolidin-2-yl)methoxy)acetyl)-piperazin-1-yl)methyl)benzonitrile hydrochloride], in that order: 99.1% and 106%.
For the compound `COc1cc(C)c(S(=O)(=O)N2CCCCC2COCC(=O)N2CCC(CCN3CCCC3)CC2)c(C)c1` (stereo not drawn) [Example 94, 2-((1-(4-methoxy-2,6-dimethylphenylsulfonyl)piperidin-2-yl)methoxy)-1-(4-(2-(pyrrolidin-1-yl)ethyl)piperidin-1-yl)ethanone hydrochloride], the inhibition at 10 µM at B1R receptor of the rat (CHO-K1, test substance 10 μM) was found to be 103%; at human B1R receptor (CHO-K1, test substance 10 μM), 105%.
For `COc1cc(C)c(S(=O)(=O)N2CCCC2COCC(=O)N2CCC(CCN3CCCC3)CC2)c(C)c1` (stereo not drawn) [Example 95, 2-((1-(4-methoxy-2,6-dimethylphenylsulfonyl)pyrrolidin-2-yl)methoxy)-1-(4-(2-(pyrrolidin-1-yl)ethyl)piperidin-1-yl)ethanone] the same measures were 101% and 107%.
Consider `COc1cc(C)c(S(=O)(=O)N2CCCCC2COCC(=O)N2CCc3cnccc3C2)c(C)c1` (stereo not drawn) [Example 96, 1-(3,4-dihydro-2,6-naphthyridin-2(1H)-yl)-2-((1-(4-methoxy-2,6-dimethylphenyl-sulfonyl)piperidin-2-yl)methoxy)ethanone hydrochloride], for which the inhibition at 10 µM turned out to be 91.3% at B1R receptor of the rat (setting [1]) and 105% at human B1R receptor (setting [2]).
Take `COc1cc(C)c(S(=O)(=O)N2CCCCC2COCC(=O)N2CCC(N3CCN4CCCCC4C3)CC2)c(C)c1.Cl.Cl` (stereo not drawn) [Example 99]: at B1R receptor of the rat (setting [1]), the “B1R Antagonism, rat [10 μM] % Inhibition” value is listed as 100.08%. Besides, the “B1R Antagonism, human [10 μM] % Inhibition” value at human B1R receptor (setting [2]) was 103.76%.
`COc1cc(C)c(S(=O)(=O)N2CCCCC2COCC(=O)N2CCC(N3CCc4cnccc4C3)CC2)c(C)c1` (stereo not drawn) [Example 100, 1-(4-(3,4-dihydro-2,6-naphthyridin-2(1H)-yl)piperidin-1-yl)-2-((1-(4-methoxy-2,6-dimethylphenylsulfonyl)piperidin-2-yl)methoxy)ethanone]: the inhibition at 10 µM was 102% at B1R receptor of the rat (CHO-K1, test substance 10 μM) and 104% at human B1R receptor (CHO-K1, test substance 10 μM).
